From US8283342B2, “Napadisylate salt of 5-(2-{[6-(2,2-difluoro-2-phenylethoxy) hexyl]amino}-1-hydroxyethyl)-8-hydroxyquinolin-2(1H)-one as agonist of the β2 adrenergic receptor” (Almirall S.A., priority 2007, dated 2012)

Columns and labels:
[1] = Thermogravimetric (TGA) analysis; assay type: physicochemical
Procedure: The thermogravimetric (TGA) analysis was obtained using a TGA-SDTA-851 Mettler-Toledo, serial number 5118408555. Samples were placed into a tared aluminium pan and then positioned on a platinum crucible. Samples were heated from 30° C. at 10° C./min to 350° C. The instrument was calibrated using indium and aluminium standards.

[2] = Differential scanning calorimetry (DSC) analysis; assay type: physicochemical; conditions: equilibrated at 30° C., heated at 10° C./min to 300° C.
Procedure: The differential scanning calorimetry (DSC) analysis was obtained using a DSC-821 Mettler-Toledo, serial number 5117423874. Samples were weighed into an aluminium pan, an aluminium lid placed on top of the sample and compressed with a brass rod. Samples were equilibrated at 30° C. and heated at 10° C./min to 300° C. The instrument was calibrated using indium and zinc standards.

- weight loss due to the decomposition of the sample ([1]; from approximately 200° C. to 220° C., heated from 30° C. at 10° C./min to 350° C.): 3.1 % w/w
- hygroscopicity (no solvent/water release) ([1]; prior to 200° C., in particular at 80-100° C., no change): lack of hygroscopicity
- stability (no changes prior to the melting point range; no conversion into other polymorphs, no decomposition) [2]: high stability
Compound: O=S(=O)(O)c1cccc2c(S(=O)(=O)O)cccc12.O=c1ccc2c([C@@H](O)CNCCCCCCOCC(F)(F)c3ccccc3)ccc(O)c2[nH]1.O=c1ccc2c([C@@H](O)CNCCCCCCOCC(F)(F)c3ccccc3)ccc(O)c2[nH]1 [5-(-2-(6-(2,2-Difluoro-2-phenylethoxy)hexylamino)-1(R)-hydroxyethyl)-8-hydroxyquinolin-2(1H)-one heminapadisylate]
